Measurements as given in US10898469B2, “Imidazolylamide derivative” (Sumitomo Dainippon Pharma Co., Ltd., priority 2016, dated 2021).
Where two headings read alike, the source gives them in different places.

Columns and labels:
Assay type in all cases: cell-based, human
FaDu cells = test: Inhibition test for sphere-forming ability of cancer cells (Test Example 1), FaDu; conditions: concentration for 50% inhibition of cell proliferation, read-out: IC50 (μmol/L) FaDu (Sphere IC50 value)
In short: (§1)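 Sphere IC50 (μmol/L) derived from CellTiter-Glo luminescence after 4 days of compound treatment (final DMSO 0.1%). Non-adherent, serum-free culture of 350-800 cells/well in DMEM/F12 supplemented with 2% B27, EGF, bFGF and insulin assessed self-renewal.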

HCT-116 cells [1] = test: Inhibition test for sphere-forming ability of cancer cells (Test Example 1), HCT-116; conditions: for IC50: HCT-116 cells, concentration for 50% inhibition of cell proliferation, read-out: IC50 (μmol/L) HCT-116 (Sphere IC50 value); for inhibitory effect on the sphere-forming ability of cancer cells: Test Example 1, summary in words, cell line not given (HCT-116, HT-29, FaDu tested)
In short: as §1

HCT-116 cells [2] = test: Inhibition test for sphere-forming ability of cancer cells in the presence of BSA (Test Example 2), HCT-116; conditions: for IC50: HCT-116 cells, in the presence of 5% BSA, cultured 4 days; for inhibitory effect on the sphere-forming ability of cancer cells: Test Example 2, in the presence of 5% BSA, summary in words, cell line not given (HCT-116, HT-29, FaDu tested)
Method: Human colorectal cancer-derived HCT-116 cells, human colon-adenocarcinoma-derived HT-29 cells, and human pharyngeal cancer-derived FaDu cells were available from American Type Culture Collection (ATCC). HCT-116 cells and HT-29 cells were cultured at 37° C. under 5% CO2 using the McCoy's 5a medium containing 10% fetal bovine serum (FBS) and 1% penicillin/streptomycin, and FaDu cells were cultured at 37° C. under 5% CO2 using the MEM medium containing 10% FBS, 1% non-essential amino acid, 1% sodium pyruvate, 5% bovine serum albumin (BSA), and 1% penicillin/streptomycin. HCT-116 cells, HT-29 cells, and FaDu cells were seeded in a 384 Well Black Clear Bottom Ultra-Low Attachment Microplate (Corning Cat. No. 3827) in an amount of 350-800 cells/well using the DMEM/F12 medium containing 2% B27 supplement (GIBCO), 20 ng/mL epidermal growth factor (EGF) (peprotech), 10 ng/mL basic fibroblast growth factor (bFGF) (peprotech), 5 μg/mL insulin (Sigma), 5% bovine serum albumin (BSA), and 1% penicillin/streptomycin. Each test compound was added into each well to adjust the final concentration of DMSO to 0.1%, and the cells were cultured for 4 days. The number of viable cells in each well was then measured with CellTiter-Glo® Luminescent Cell Viability Assay (Promega) to calculate the concentration of each test compound for 50% inhibition of cell proliferation (Sphere IC50 value; μmol/L).
The experiment of Test Example 2 was performed for each compound of each Example.
The concentration of each test compound for 50% inhibition of cell proliferation (Sphere IC50 value; μmol/L) is shown in the following Table.

HT-29 cells = test: Inhibition test for sphere-forming ability of cancer cells (Test Example 1), HT-29; conditions: concentration for 50% inhibition of cell proliferation, read-out: IC50 (μmol/L) HT-29 (Sphere IC50 value)
In short: as §1

Row | IC50 (FaDu cells; Homo sapiens) [µmol/L] | IC50 (HCT-116 cells [1]; Homo sapiens) [µmol/L] | IC50 (HCT-116 cells [2]; Homo sapiens, HCT-116, 96 h) [nM] | IC50 (HT-29 cells; Homo sapiens) [µmol/L] | IC50 (FaDu cells) [µmol/L] | IC50 (HCT-116 cells [1]) [µmol/L] | IC50 (HCT-116 cells [2]) [nM] | IC50 (HT-29 cells) [µmol/L] | SMILES | inhibitory effect on the sphere-forming ability of cancer cells (HCT-116 cells [1]) | inhibitory effect on the sphere-forming ability of cancer cells (HCT-116 cells [2])
1 | 0.67 | 5.79 | 6400 | 0.69 | – | – | – | – | CS(=O)(=O)Nc1ccc(/C=C/C(=O)Nc2cn(Cc3cccc(Cl)c3)cn2)cc1 [Example 4, (E)-N-(1-(3-Chlorobenzyl)-1H-imidazol-4-yl)-3-(4-(methylsulfonamide)phenyl)acrylamide] | – | –
2 | 0.03 | 0.22 | 910 | 0.03 | – | – | – | – | CC(=O)Nc1ccc(/C=C/C(=O)Nc2cn(Cc3cccc(Cl)c3)cn2)cc1 [Example 9, (2E)-3-[4-(acetylamino)phenyl]-N-[1-(3-chlorobenzyl)-1H-imidazol-4-yl]prop-2-enamide] | particularly potent inhibitory effect | –
3 | 0.06 | 0.08 | 640 | < 0.01 | – | – | – | – | N#Cc1ccc(/C=C/C(=O)Nc2cn(Cc3cccc(Cl)c3)cn2)cc1 [Example 22] | particularly potent inhibitory effect | particularly potent inhibitory effect
4 | < 0.01 | 0.61 | 370 | 0.47 | – | – | – | – | COc1ccc(/C=C/C(=O)Nc2cn(Cc3cccc(Cl)c3)cn2)cc1O [Example 23, (E)-N-(1-(3-Chlorobenzyl)-1H-imidazol-4-yl)-3-(3-hydroxy-4-methoxyphenyl)acrylamide] | – | particularly potent inhibitory effect
5 | < 0.01 | 0.84 | 90 | 0.65 | – | – | – | – | COc1ccc(/C=C/C(=O)Nc2cn(Cc3cccc(C(F)(F)F)c3)cn2)cc1O [Example 31, (E)-3-(3-Hydroxy-4-methoxyphenyl)-N-(1-(3-(trifluoromethyl)benzyl)-1H-imidazol-4-yl)acrylamide] | – | particularly potent inhibitory effect
6 | < 0.01 | 0.06 | 590 | 0.01 | – | – | – | – | COc1ccc(/C=C/C(=O)Nc2cn(Cc3cccc(Cl)c3)cn2)cc1OCCO [Example 33, (2E)-N-[1-(3-chlorobenzyl)-1H-imidazol-4-yl]-3-[3-(2-hydroxyethoxy)-4-methoxyphenyl]prop-2-enamide] | particularly potent inhibitory effect | particularly potent inhibitory effect
7 | – | – | – | – | 0.5 | 0.57 | 4220 | – | COc1ccc(C(=O)Nc2cn(Cc3ccc(Cl)cc3)cn2)cc1OC [Example 158] | – | –
8 | – | – | – | – | 0.07 | 0.06 | 610 | – | COc1ccc(C(=O)Nc2cn(Cc3cc(F)cc(Cl)c3)cn2)cc1OC [Example 159] | particularly potent inhibitory effect | –
9 | – | – | – | – | 0.07 | 0.07 | 610 | – | COc1ccc(C(=O)Nc2cn(Cc3ccc(F)c(Cl)c3)cn2)cc1OC [Example 160] | particularly potent inhibitory effect | –
10 | – | – | – | – | < 0.01 | 0.04 | 410 | – | COc1ccc(C(=O)Nc2cn(Cc3ccc(F)c(C(F)(F)F)c3)cn2)cc1OC [Example 161] | particularly potent inhibitory effect | –
11 | – | – | – | – | 0.06 | 0.06 | 510 | – | COc1ccc(C(=O)Nc2cn(Cc3cc(F)cc(C(F)(F)F)c3)cn2)cc1OC [Example 162] | particularly potent inhibitory effect | –
12 | – | – | – | – | 0.22 | 0.29 | 770 | – | O=C(Nc1cn(Cc2cc(F)c(F)c(F)c2)cn1)c1ccc(CO)cc1 [Example 175] | – | –
13 | – | – | – | – | 0.77 | > 10 | – | 4.25 | CCOc1ncc(C(=O)Nc2cn(Cc3cccc(Cl)c3)cn2)cc1Cl [Example 220] | – | –
14 | – | – | – | – | 0.89 | 0.51 | – | 0.59 | CCOc1ccc(C(=O)Nc2cn(Cc3c(F)ccc(C)c3F)cn2)cn1 [Example 221] | – | –
